Legend:
ENaC = assay: real-time PCR analysis of ENaC subunit gene expression in skin of K5-MR neonates; type: in vivo, mouse; conditions: K5-MR pups; pregnant mice were given canrenoate
Source text: We took advantage of the K5-MR mouse model to question whether expression of ENaC and its main regulators may be altered by MR overexpression. Skin samples from control and K5-MR neonates were processed for real-time PCR analysis of gene expression.

[1] = test system: keratinocyte outgrowth of skin explants; assay: ex vivo wound healing assay: organotypic culture of newborn mouse skin explants, keratinocyte outgrowth; type: cell-based; conditions: 0.1 mM in culture medium, 7 days culture

## C[C@]12CCC(=O)C=C1C=C[C@@H]1[C@@H]2CC[C@@]2(C)[C@H]1CC[C@@]2(O)CCC(=O)O [potassium canrenoate]
ENaC
  enhanced skin mRNA expression of all 3 subunits of ENaC (abnormal pattern of expression): blunted
[1]; skin explants from K5-MR pups (MR overexpression in basal keratinocytes)
  impaired keratinocyte outgrowth of the explants: partially but significantly improved
[1]; skin explants from control pups
  keratinocyte outgrowth of the explants: no effect
